Experimental data taken from patent US20070027150A1 (priority 2005, published 2007).
Read-outs that look alike come from different tables or passages of the source.

Target: His-tagged N-terminal ATP binding domain (amino acid residues 9-236) of HSP90α (Homo sapiens, UniProt P07900)
Assay: HSP90 inhibitor binding potency: TRF competition binding assay
Settings: read-out: Hsp90 IC50 Range
Outline: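 Competition against biotinylated radicicol for binding to the His-tagged 9-236 ATP domain of HSP90α: 2 h, room temperature, HEPES/MgCl2/KCl/BSA buffer. Streptavidin capture, then europium-labeled anti-His antibody and enhancement solution; europium counts give IC50.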

Row | IC50 (Table I) | IC50 (Table II) | SMILES
1 | > 10 µM |  | Cc1nc(N)nc2c1C(=O)CC(c1cccc(-c3ccccc3F)c1)C2 (stereo not shown) [Compound 58]
2 |  | 1 to 10 µM | Cc1nc(N)nc2c1C(=O)CC(c1ccc(F)cc1-c1cccc(O)n1)C2 (stereo not shown) [Compound 264, 2-amino-7-[4-fluoro-2-(6-hydroxy-pyridin-2-yl)-phenyl]-4-methyl-7,8-dihydro-6H-quinazolin-5-one]
3 |  | < 1 µM | CCc1ccccc1-n1ccnc1C1CC(=O)c2c(C)nc(N)nc2C1 (stereo not shown) [Compound 195, 2-amino-7-[1-(2-ethyl-phenyl)-1H-imidazol-2-yl]-4-methyl-7,8-dihydro-6H-quinazolin-5-one]
4 |  | 1 to 10 µM | Cc1cnc(C)c(-c2cc(F)ccc2C2CC(=O)c3c(C)nc(N)nc3C2)n1 (stereo not shown) [Compound 227, 2-amino-7-[2-(3,6-dimethyl-pyrazin-2-yl)-4-fluoro-phenyl]-4-methyl-7,8-dihydro-6H-quinazolin-5-one]
